Reference: ChEMBL document CHEMBL1275517, “Development of caspofungin resistance following prolonged therapy for invasive candidiasis secondary to Candida glabrata infection” (2008)
≈ marks a conversion by molar mass, not a printed value. Numbered stars: 1 amine (or outer) side, 2 acyl side, 3 side chain; on linkers, the order of the positions; unused ones are H or OH. Bridge positions count the residues as written; N and C are the ends. Square brackets hold non-standard residues; d marks the D form. Peptide text beside a SMILES is read from it. * marks the point of attachment. hTyr(3S-OH,4S-OH,3'-OSO3H) = N[C@H](C(=O)O)[C@H](O)[C@@H](O)c1ccc(O)c(OS(=O)(=O)O)c1; pTerphenylCO(4''-OnC5H11) = CCCCCOc1ccc(-c2ccc(-c3ccc(C(=O)*)cc3)cc2)cc1; Orn(4R-OH,5R-OH) = O=C([C@H](C[C@@H](O)[C@@H](O)N[*:3])N[*:1])[*:2]; hTyr(3S-OH,4S-OH) = N[C@H](C(=O)O)[C@H](O)[C@@H](O)c1ccc(O)cc1; Pro(3S-OH,4S-Me) = C[C@H]1CN[C@H](C(=O)O)[C@H]1O; X1 = CCCCCOc1ccc(-c2cc(-c3ccc(C(=O)*)cc3)no2)cc1; Gln(3R-OH) = NC(=O)C[C@@H](O)[C@H](N)C(=O)O; Hyp = O=C(O)[C@@H]1C[C@@H](O)CN1

Assays:
Assay type in all cases: functional
Nakaseomyces glabratus [1] = experiment: Antimicrobial activity against Candida glabrata isolate 7754 after 48 hrs by broth dilution method in presence of 50% of human serum; settings: isolate 7754, 48 h
Nakaseomyces glabratus [2] = experiment: Antimicrobial activity against Candida glabrata isolate 7755 FKS2 F659V mutant gene after 48 hrs by broth dilution method; settings: isolate 7755, 48 h
Nakaseomyces glabratus [3] = experiment: Antimicrobial activity against Candida glabrata isolate 7754 after 24 hrs by broth dilution method; settings: isolate 7754, 24 h
Nakaseomyces glabratus [4] = experiment: Antimicrobial activity against Candida glabrata isolate 7754 after 24 hrs by broth dilution method in presence of 50% of human serum; settings: isolate 7754, 24 h
Nakaseomyces glabratus [5] = experiment: Antimicrobial activity against Candida glabrata isolate 7754 after 48 hrs by broth dilution method; settings: isolate 7754, 48 h
Nakaseomyces glabratus [6] = experiment: Antimicrobial activity against Candida glabrata isolate 7755 expressing FKS2 F659V mutant gene after 24 hrs by broth dilution method; settings: isolate 7755, 24 h
Nakaseomyces glabratus [7] = experiment: Antimicrobial activity against Candida glabrata isolate 7755 expressing FKS2 F659V mutant gene after 24 hrs by broth dilution method in presence of 50% of human serum; settings: isolate 7755, 24 h
Nakaseomyces glabratus [8] = experiment: Antimicrobial activity against Candida glabrata isolate 7755 FKS2 F659V mutant gene after 48 hrs by broth dilution method in presence of 50% of human serum; settings: isolate 7755, 48 h

Compound: CCCCCOc1ccc(-c2ccc(-c3ccc(C(=O)N[C@H]4C[C@@H](O)[C@@H](O)NC(=O)[C@@H]5[C@@H](O)[C@@H](C)CN5C(=O)[C@H]([C@@H](C)O)NC(=O)[C@H]([C@H](O)[C@@H](O)c5ccc(O)cc5)NC(=O)[C@@H]5C[C@@H](O)CN5C(=O)[C@H]([C@@H](C)O)NC4=O)cc3)cc2)cc1 [ANIDULAFUNGIN] ({pTerphenylCO(4''-OnC5H11)}-[Orn(4R-OH,5R-OH)]T[Hyp][hTyr(3S-OH,4S-OH)]T[Pro(3S-OH,4S-Me)]; lactam 1-C)
- MIC (Nakaseomyces glabratus [1]): 2 µg/mL
- MIC (Nakaseomyces glabratus [2]): 1 µg/mL (≈ 0.877 µM)
- MIC (Nakaseomyces glabratus [3]): 0.125 µg/mL (≈ 0.11 µM)
- MIC (Nakaseomyces glabratus [4]): 1 µg/mL
- MIC (Nakaseomyces glabratus [5]): 0.125 µg/mL (≈ 0.11 µM)
- MIC (Nakaseomyces glabratus [6]): 0.5 µg/mL (≈ 0.438 µM)
- MIC (Nakaseomyces glabratus [7]): 4 µg/mL
- MIC (Nakaseomyces glabratus [8]): 4 µg/mL

Compound: CC[C@H](C)C[C@H](C)CCCCCCCCC(=O)N[C@H]1C[C@@H](O)[C@@H](NCCN)NC(=O)[C@@H]2[C@@H](O)CCN2C(=O)[C@H]([C@H](O)CCN)NC(=O)[C@H]([C@H](O)[C@@H](O)c2ccc(O)cc2)NC(=O)[C@@H]2C[C@@H](O)CN2C(=O)[C@H]([C@@H](C)O)NC1=O [CASPOFUNGIN]
- MIC (Nakaseomyces glabratus [1]): 0.5 µg/mL
- MIC (Nakaseomyces glabratus [2]): 8 µg/mL (≈ 7.32 µM)
- MIC (Nakaseomyces glabratus [3]): 0.25 µg/mL (≈ 0.229 µM)
- MIC (Nakaseomyces glabratus [4]): 0.5 µg/mL
- MIC (Nakaseomyces glabratus [5]): 0.25 µg/mL (≈ 0.229 µM)
- MIC (Nakaseomyces glabratus [6]): 2 µg/mL (≈ 1.83 µM)
- MIC (Nakaseomyces glabratus [7]): 2 µg/mL
- MIC (Nakaseomyces glabratus [8]): 8 µg/mL

Compound: CCCCCOc1ccc(-c2cc(-c3ccc(C(=O)N[C@H]4C[C@@H](O)[C@@H](O)NC(=O)[C@@H]5[C@@H](O)[C@@H](C)CN5C(=O)[C@H]([C@H](O)CC(N)=O)NC(=O)[C@H]([C@H](O)[C@@H](O)c5ccc(O)c(OS(=O)(=O)O)c5)NC(=O)[C@@H]5C[C@@H](O)CN5C(=O)[C@H]([C@@H](C)O)NC4=O)cc3)no2)cc1 [MICAFUNGIN] (X1-[Orn(4R-OH,5R-OH)]T[Hyp][hTyr(3S-OH,4S-OH,3'-OSO3H)][Gln(3R-OH)][Pro(3S-OH,4S-Me)]; lactam 1-C)
- MIC (Nakaseomyces glabratus [1]): 4 µg/mL
- MIC (Nakaseomyces glabratus [2]): 0.5 µg/mL (≈ 0.394 µM)
- MIC (Nakaseomyces glabratus [3]): 0.125 µg/mL (≈ 0.0984 µM)
- MIC (Nakaseomyces glabratus [4]): 1 µg/mL
- MIC (Nakaseomyces glabratus [5]): 0.125 µg/mL (≈ 0.0984 µM)
- MIC (Nakaseomyces glabratus [6]): 0.25 µg/mL (≈ 0.197 µM)
- MIC (Nakaseomyces glabratus [7]): 4 µg/mL
- MIC (Nakaseomyces glabratus [8]): 4 µg/mL
